Source: a compilation of properties of binary mixtures (doi:10.1021/acs.jced.5b00753)

Assay: xn = mol fraction of the nth substance listed
Settings: 101 kPa

CS(C)=O + CC[n+]1ccn(C)c1.F[B-](F)(F)F
x1 = 1
Settings | viscosity [mPa·s]
303.15 K | 1.784
313.15 K | 1.498
323.15 K | 1.27
333.15 K | 1.095

CC[n+]1ccn(C)c1.F[B-](F)(F)F + CN(C)C=O
viscosity [mPa·s]
Settings | x2 = 0 | x2 = 0.1016 | x2 = 0.2016 | x2 = 0.2994 | x2 = 0.3987 | x2 = 0.5005 | x2 = 0.6004 | x2 = 0.7 | x2 = 0.7997 | x2 = 0.8999
303.15 K | 28 | 21.61 | – | 12.55 | 9.33 | 6.703 | 4.72 | 3.214 | 2.114 | 1.305
313.15 K | – | 16.03 | 12.53 | 9.74 | – | – | 3.867 | 2.689 | – | 1.144
323.15 K | – | 12.29 | 9.8 | – | 5.935 | – | – | 2.293 | 1.567 | –
333.15 K | 12.08 | 9.72 | 7.83 | 6.291 | 4.93 | 3.744 | 2.775 | 1.993 | 1.387 | 0.899

CN(C)C=O + CC[n+]1ccn(C)c1.F[B-](F)(F)F
x1 = 1
Settings | viscosity [mPa·s]
303.15 K | 0.744
323.15 K | 0.6

CC[n+]1ccn(C)c1.F[B-](F)(F)F + CC(=O)N(C)C
viscosity [mPa·s]
Settings | x2 = 0 | x2 = 0.0996 | x2 = 0.1998 | x2 = 0.2995 | x2 = 0.3989 | x2 = 0.5005 | x2 = 0.6 | x2 = 0.6996 | x2 = 0.8001 | x2 = 0.8994
303.15 K | – | 22.75 | – | 13.99 | 10.62 | 7.83 | – | – | – | 1.549
313.15 K | 20.41 | 16.86 | 13.59 | 10.65 | 8.23 | – | – | 3.147 | 2.092 | 1.328
323.15 K | – | 12.8 | 10.45 | – | 6.555 | 4.982 | 3.69 | 2.638 | 1.79 | 1.154
333.15 K | 12.08 | 10.09 | 8.31 | – | – | 4.122 | 3.115 | 2.252 | 1.563 | 1.029

CC(=O)N(C)C + CC[n+]1ccn(C)c1.F[B-](F)(F)F
x1 = 1
Settings | viscosity [mPa·s]
303.15 K | 0.862
313.15 K | 0.758
323.15 K | 0.673
333.15 K | 0.602

CC[n+]1ccn(C)c1.F[B-](F)(F)F + CS(C)=O
viscosity [mPa·s]
Settings | x2 = 0 | x2 = 0.1001 | x2 = 0.2007 | x2 = 0.2996 | x2 = 0.4 | x2 = 0.4996 | x2 = 0.6002 | x2 = 0.7002 | x2 = 0.7996 | x2 = 0.9002
303.15 K | 28 | 24.39 | – | – | 14.08 | 11.13 | – | 6.249 | – | 2.928
313.15 K | 20.41 | 17.83 | 15.25 | – | 10.59 | 8.46 | 6.575 | 4.936 | 3.515 | 2.385
323.15 K | 15.35 | 13.54 | 11.62 | 9.91 | – | 6.667 | 5.296 | 3.971 | 2.893 | –
333.15 K | 12.08 | 10.64 | 9.18 | 7.87 | 6.571 | 5.382 | 4.335 | 3.294 | 2.438 | –
